Experimental data published in patent publication US9700543B2, “GLP-1 receptor stabilizers and modulators” (Celgene International II SÀRL, priority 2011, dated 2017).

How the values were obtained:
[1] = Determination of absolute oral bioavailability in rats; assay type: in vivo; settings: rat, plasma, fasted female Sprague-Dawley rats, intravenous 1 mg/kg
Protocol: Determination of Absolute Oral Bioavailability in Rats
All pharmacokinetic studies were conducted in fasted female Sprague-Dawely rats (Simonsen Laboratories or Harlan Laboratories). Rats were housed in an ALAAC accredited facility and the research was approved by the facilities Institutional Animal Care and Use Committee (IACUC). The animals were acclimated to the laboratory for at least 48 h prior to initiation of experiments.
Compounds were formulated in 20% hydroxy beta cyclodextrin or 20% captisol and 80%-25 mM NaPO4 Buffer (pH 8) (intravenous infusion), or 5% DMSO/5% Tween20 and 90% water (oral gavage or intraperitoneal injection). The concentration of the dosing solutions was verified by HPLC-UV. For intravenous dosing, compounds were administered into the tail vein to manually restrained animals (n=3 rats/compound). The intravenous dose was 1 mg/kg. Oral dosing was by gavage using a standard stainless steel gavage needle (n=2-4 rats/compound). The oral solution dose was 5 mg/kg. For compounds 1 and 3, the oral solution dose was 30 mg/kg. For both routes of administration, blood was collected into BD Microtainer tubes with Dipotassium EDTA as the anticoagulantant eight time-points after dosing with the final sample drawn 24 h post dose Plasma was separated by centrifugation and transferred to a polypropylene 96-well plate and kept at 4° C. until analysis.
Proteins were precipitated by adding 150 μL acetonitrile to 50 μL of plasma. Plates were mixed for 1 min on a plate shaker to facilitate protein precipitation and then centrifuged at 3,000 rpm for 10 min to pellet protein. The supernatant was transferred to a clean plate and centrifuged at 3,000 rpm for 10 min to pellet any remaining solid material prior to LC/MS/MS analysis. Calibration curve standards were prepared by spiking 54 compound stock in DMSO into rat plasma from untreated animals. An eight point standard curve spanning a range of 0.14 nM to 300 nM was included with each bio-analytical run. The standards were processed identically to the rat pharmacokinetic samples.
Concentrations in the rat pharmacokinetic samples were determined using a standardized HPLC-LC/MS/MS method relative to the eight point standard curve. The system consisted of a Leap CTC Pal injector, Agilent 1200 HPLC with binary pump coupled with an Applied Biosystems 4000 QTrap. Compounds were chromatographed on a Phenomenex Luna C8(2) 20×2 mm 2 um Mercury Cartridge with Security Guard. A gradient method was used with mobile phase A consisting of 0.1% formic acid in water and mobile phase B consisting of 0.1% formic acid in acetonitrile at flow rates varying from 0.7 to 0.8 mL/min. Ions were generated in positive ionization mode using an electrospray ionization (ESI) interface. Multiple reaction monitoring (MRM) methods were developed specific to each compound. The heated nebulizer was set at 500° C. with a nebulizer current of 5.1 μA. Collision energies used to generate daughter ions ranged between 29 and 80 V. Peak area obtained from MRM of the mass transitions specific for each compound were used for quantification. The limit of quantification of the method was typically 1.2 nM. Data were collected and analyzed using Analyst software version 1.5.1. Blood concentration versus time data were analyzed using non-compartmental methods (WinNonlin Phoenix version 6.2; model 200 for oral or intraperitoneal dosing and model 202 for intravenous infusion). Absolute oral bioavailability (%) was calculated using the following expression: (Oral AUC×IV Dose)/(IV AUC×Oral Dose)×100.

GLP-1R = biological target: T1, GLP-1R (Homo sapiens, UniProt P43220); experiment: EC20 GLP-1(9-36) PAM cAMP assay: dose response of compound in the presence of fixed concentration of GLP-1(9-36); assay type: cell-based; settings: compound dose response with fixed GLP-1(9-36), GLP-1R CRE-bla CHO-K1 cells; for EC20 GLP-1 (9-36) PAM Activity max cAMP: Emax as total cAMP; for EC50: cAMP
T1 construct: host or cells: CRE-bla CHO-K1
T1 sequence (P43220 24-463): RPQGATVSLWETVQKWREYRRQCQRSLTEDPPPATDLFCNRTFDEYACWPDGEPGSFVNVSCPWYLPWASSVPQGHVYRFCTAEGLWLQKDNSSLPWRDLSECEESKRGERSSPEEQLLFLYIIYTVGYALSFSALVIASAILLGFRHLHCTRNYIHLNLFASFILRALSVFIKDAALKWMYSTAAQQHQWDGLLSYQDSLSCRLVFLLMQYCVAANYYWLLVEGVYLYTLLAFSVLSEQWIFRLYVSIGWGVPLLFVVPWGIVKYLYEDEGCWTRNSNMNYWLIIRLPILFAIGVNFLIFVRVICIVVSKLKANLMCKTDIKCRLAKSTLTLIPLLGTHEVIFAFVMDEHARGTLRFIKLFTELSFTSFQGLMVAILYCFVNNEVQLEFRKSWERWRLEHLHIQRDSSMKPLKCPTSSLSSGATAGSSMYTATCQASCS
T1 sequence (P01275 100-127 partner limits assumed): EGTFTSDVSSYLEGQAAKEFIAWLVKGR
Protocol: EC20GLP-1(9-36) PAM cAMP Assay: Dose Response of Compound in the Presence of Fixed Concentration of GLP-1 (9-36)
GLP-1R CRE-bla CHO-K1 cells were seeded into 384-well white flat bottom plates at 10,000 cells/well/20 μL growth medium (DMEM-High glucose, 10% dialyzed FBS, 0.1 mM NEAA, 25 mM Hepes, 100 U/mL penicillin/100 μg/mL streptomycin, 5 μg/mL Blasticidin, 600 μg/mL Hygromycin) and incubated for 18 h at 37° C. in 5% CO2. Growth medium was replaced with 12 μL assay buffer (Hanks Balanced Salt solution, 10 mM Hepes, 0.1% BSA, pH7.4). A 5× compound dose response curve (12-point) was generated in assay buffer containing 1.5 mM IBMX, 12.5% DMSO. GLP-1(9-36) was diluted to 4.2 μM in assay buffer containing 1.5 mM IBMX and 12.5% DMSO. The 5× compound dose response was added (3 μL), followed by 0.5 μL of GLP-1(9-36) and cells were incubated for 30 min at 37° C. Direct detection of cAMP was carried out using DiscoveRx HitHunter cAMP kit according to manufacturer's instructions and luminescence was read using a SpectraMax M5 plate reader. Luminescence was converted to total cAMP using a cAMP standard curve and data was analyzed by non-linear regression to determine the EC50 and Emax.

[2] = oral solution 30 mg/kg (compounds 1 and 3)

SMILES	bioavailability [1, 2] [%]	EC20 GLP-1 (9-36) PAM Activity max cAMP (GLP-1R) [nM]	EC50 (GLP-1R) [nM]	bioavailability ([1]; oral solution 5 mg/kg) [%]
CCCCCCCOc1ccc(C(=O)Oc2ccc(CN(CC(=O)O)C(=O)c3ccc(NC(=O)Cc4ccc(OC)cc4)cc3)cc2)cc1 [Compound 1, 2-(N-(4-((4-(heptyloxy)benzoyl)oxy)benzyl)-4-(2-(4-methoxyphenyl)acetamido)benzamido)-acetic acid]	< 1	240	3600	
CCCCCCCOc1ccc(C(=O)Oc2ccc(CN(CC(=O)O)C(=O)c3ccc(NC(=O)Cc4ccc(OC)cc4C(F)(F)F)cc3)cc2)cc1 [Compound 3, 2-(N-(4-((4-(heptyloxy)benzoyl)oxy)benzyl)-4-(2-(4-methoxy-2-(trifluoromethyl)phenyl)-acetamido)benzamido)acetic acid]	< 1	284	1300	
CCCCCCCOc1ccc(C(=O)Oc2ccc(CN(CC(=O)O)C(=O)c3ccc(NC(=O)Cc4ccc(C)c(OC)c4)cc3)cc2)cc1 [Compound 4, 2-(N-(4-((4-(heptyloxy)benzoyl)oxy)benzyl)-4-(2-(3-methoxy-4-methylphenyl)-acetamido)benzamido)acetic acid]		371	2400	
CCCCCCCCCOc1ccc(C(=O)Oc2ccc(CN(CC(=O)O)C(=O)c3ccc(NC(=O)Cc4ccc(OC)cc4)cc3)cc2)cc1 [Compound 16, 2-(4-(2-(4-methoxyphenyl)acetamido)-N-(4-((4-(nonyloxy)benzoyl)oxy)benzyl)benzamido) acetic acid]		293	1200	
CCCCCCCCOc1ccc(C(=O)Oc2ccc(CN(CC(=O)O)C(=O)c3ccc(NC(=O)Cc4ccc(OC)cc4)cc3)cc2)cc1 [Compound 17, 2-(4-(2-(4-methoxyphenyl)acetamido)-N-(4-((4-(octyloxy)benzoyl)oxy)benzyl)benzamido) acetic acid]		281	1500	
CCCCCCOc1ccc(C(=O)Oc2ccc(CN(CC(=O)O)C(=O)c3ccc(NC(=O)Cc4ccc(OC)cc4)cc3)cc2)cc1 [Compound 18, 2-(N-(4-((4-(hexyloxy)benzoyl)oxy)benzyl)-4-(2-(4-methoxyphenyl)acetamido)benzamido) acetic acid]		182	3100	
COc1ccc(CC(=O)Nc2ccc(C(=O)N(CC(=O)O)Cc3ccc(OC(=O)c4ccc(C5CCCCC5)cc4)cc3)cc2)cc1 [Compound 39, 2-(N-(4-((4-cyclohexylbenzoyl)oxy)benzyl)-4-(2-(4-methoxyphenyl)acetamido)benzamido) acetic acid]		273	2500	
CCCCCCCCc1ccc(C(=O)Oc2ccc(CN(CC(=O)O)C(=O)c3ccc(NC(=O)Cc4ccc(OC)cc4)cc3)cc2)cc1 [Compound 40, 2-(4-(2-(4-methoxyphenyl)acetamido)-N-(4-((4-octylbenzoyl)oxy)benzyl)benzamido)acetic acid]		397	2100	
COc1ccc(CC(=O)Nc2ccc(C(=O)N(CC(=O)O)Cc3ccc(OC(=O)c4ccc(OCCC(C)C)cc4)cc3)cc2)cc1 [Compound 46, 2-(N-(4-((4-(isopentyloxy)benzoyl)oxy)benzyl)-4-(2-(4-methoxyphenyl)acetamido)benzamido) acetic acid]		252	7000	
COc1ccc(CC(=O)Nc2ccc(C(=O)N(CC(=O)O)Cc3ccc(OC(=O)c4ccc(-c5ccc(C)cc5)cc4)cc3)cc2)c(C(F)(F)F)c1 [Compound 192, 2-(4-(2-(4-methoxy-2-(trifluoromethyl)phenyl)acetamido)-N-(4-((4′-methyl-[1,1′-biphenyl]-4-carbonyl)oxy)benzyl)benzamido)acetic acid]		248	1300	
COc1ccc(CC(=O)Nc2ccc(C(=O)N(CC(=O)O)Cc3ccc(OC(=O)c4ccc(-c5ccc(C)cc5)cc4)cc3)c(OC)c2)c(C(F)(F)F)c1 [Compound 314, 2-(2-methoxy-4-(2-(4-methoxy-2-(trifluoromethyl)phenyl)acetamido)-N-(4-((4′-methyl-[1,1′-biphenyl]-4-carbonyl)oxy)benzyl)benzamido)acetic acid]		307	500	
COc1ccc(CC(=O)Nc2ccc(C(=O)N(CC(=O)O)Cc3ccc(-c4noc(-c5ccc(-c6ccc(C)cc6)cc5)n4)cc3)cc2)c(C(F)(F)F)c1 [Compound 354, 2-(4-(2-(4-methoxy-2-(trifluoromethyl)phenyl)acetamido)-N-(4-(5-(4′-methyl-[1,1′-biphenyl]-4-yl)-1,2,4-oxadiazol-3-yl)benzyl)benzamido)acetic acid]		297	300	2
COc1ccc(CC(=O)Nc2ccc(C(=O)N(CC(=O)O)Cc3ccc(-c4noc(-c5ccc(C)cc5)n4)cc3)cc2)c(C(F)(F)F)c1 [Compound 355, 2-(4-(2-(4-methoxy-2-(trifluoromethyl)phenyl)acetamido)-N-(4-(5-(p-tolyl)-1,2,4-oxadiazol-3-yl)benzyl)benzamido)acetic acid]		266	2900	2
COc1ccc(CC(=O)Nc2ccc(C(=O)N(CC(=O)O)Cc3ccc(-c4nc(-c5ccc(-c6ccc(C)cc6)cc5)co4)cc3)cc2)c(C(F)(F)F)c1 [Compound 360, 2-(4-(2-(4-methoxy-2-(trifluoromethyl)phenyl)acetamido)-N-(4-(4-(4′-methyl-[1,1′-biphenyl]-4-yl)oxazol-2-yl)benzyl)benzamido)acetic acid]		290	500	2
COc1ccc(CC(=O)Nc2ccc(C(=O)N(CC(=O)O)Cc3ccc(-c4n[nH]c(-c5ccc(-c6ccc(C)cc6)cc5)n4)cc3)cc2)c(C(F)(F)F)c1 [Compound 361, 2-(4-(2-(4-methoxy-2-(trifluoromethyl)phenyl)acetamido)-N-(4-(5-(4′-methyl-[1,1′-biphenyl]-4-yl)-1H-1,2,4-triazol-3-yl)benzyl)benzamido)acetic acid]		234	2700	
COc1ccc(CC(=O)Nc2ccc(C(=O)N(CC(=O)O)Cc3ccc(-c4nc(-c5ccc(-c6ccc(C)cc6)cc5)no4)cc3)cc2)c(C(F)(F)F)c1 [Compound 362, 2-(4-(2-(4-methoxy-2-(trifluoromethyl)phenyl)acetamido)-N-(4-(3-(4′-methyl-[1,1′-biphenyl]-4-yl)-1,2,4-oxadiazol-5-yl)benzyl)benzamido)acetic acid]		281	300	8
